Reference: patent US7932262B2 (Novartis AG, priority 2006, dated 2011)

What was measured:
A2780 cells = assay: Cell Proliferation Assay (Cell Titer Glo), A2780; assay type: cell-based; conditions: Homo sapiens, 72 h; A2780 cells, 3 days incubation; read-out: CPEC50 A2780
Protocol: IV. Cell Proliferation Assay Protocol:
A2780, PC-3, or PC3MM cells were seeded at 1000 cells/well in 100 μL/well (10.000 cells/mL) growth media in 96-well plates. Cells were allowed to adhere to the bottom of plates for 3-5 hours in a 37° C. 5% CO2 incubator. Compounds were dissolved in DMSO and then transferred to the cell plates. The cells were incubated with the compounds for 3 days in a 37° C. 5% CO2 incubator. The growth medium containing the compounds was then removed from the cells and fresh medium was added, followed by 100 μL of Cell Titer Glo assay reagent (Promega). This mixture was shaken for 1 minute and then incubated without shaking for 10 minutes. Activity determinations for the compounds were made by detection on a Trilux Instrument.

PDK1 kinase = molecular target: T1, PDK1 kinase (Homo sapiens, UniProt O15530); assay: PDK1 Kinase Alpha Screen Assay; assay type: biochemical; conditions: read-out: PDK1 IC50
T1 sequence (O15530 1-556): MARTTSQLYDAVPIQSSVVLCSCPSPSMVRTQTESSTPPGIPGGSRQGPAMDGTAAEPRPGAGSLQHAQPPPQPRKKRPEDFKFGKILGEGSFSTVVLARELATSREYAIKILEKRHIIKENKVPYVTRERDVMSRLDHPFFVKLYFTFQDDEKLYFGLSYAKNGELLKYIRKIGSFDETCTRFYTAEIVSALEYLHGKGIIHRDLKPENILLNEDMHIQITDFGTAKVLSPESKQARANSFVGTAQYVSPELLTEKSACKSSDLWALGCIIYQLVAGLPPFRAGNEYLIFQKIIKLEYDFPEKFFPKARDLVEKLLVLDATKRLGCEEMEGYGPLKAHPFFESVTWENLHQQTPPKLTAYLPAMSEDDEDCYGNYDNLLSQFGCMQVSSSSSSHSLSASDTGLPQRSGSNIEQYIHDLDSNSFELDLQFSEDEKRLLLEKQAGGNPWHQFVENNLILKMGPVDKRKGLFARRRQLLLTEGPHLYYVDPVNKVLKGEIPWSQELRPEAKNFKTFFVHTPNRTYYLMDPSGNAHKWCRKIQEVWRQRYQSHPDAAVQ
Outline: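 PDK1 phosphorylated 50 nM biotinylated PDK1-4 peptide with 10 uM ATP in Tris pH 7.5, 10 mM MgCl2, 2 mM DTT, 2.5% DMSO for 3-18 hours. After EDTA stop, phosphopeptide was detected by AlphaScreen using phospho-(Ser/Thr) PKA substrate antibody with protein A/streptavidin beads, read after overnight incubation.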

Row | SMILES | EC50 (A2780 cells) | IC50 (PDK1 kinase)
1 | CCN1CC(Oc2cccc3cnc(Nc4ccc(S(N)(=O)=O)cc4)nc23)C1 [Compound 50, 4-[8-(1-Ethyl-azetidin-3-yloxy)-quinazolin-2-ylamino]-benzenesulfonamide] | < 5 µM | < 5 µM
2 | NS(=O)(=O)c1ccc(Nc2ncc3ccc(-c4ccc5c(c4)CCNC5=O)c(OC4CCNCC4)c3n2)cc1 [Compound 64, 4-[7-(1-Oxo-1,2,3,4-tetrahydro-isoquinolin-6-yl)-8-(piperidin-4-yloxy)-quinazolin-2-ylamino]-benzenesulfonamide] | 5 to 10 µM | < 5 µM
3 | NS(=O)(=O)c1ccc(Nc2ncc3cccc(-c4ccc(-c5ccn[nH]5)cc4)c3n2)cc1 [Compound 89, 4-{8-[4-(2H-Pyrazol-3-yl)-phenyl]-quinazolin-2-ylamino}-benzenesulfonamide] | < 5 µM | < 5 µM
4 | COCCNc1cc(-c2cccc3cnc(Nc4ccc(S(N)(=O)=O)cc4)nc23)ccn1 [Compound 100, 4-{8-[2-(2-Methoxy-ethylamino)-pyridin-4-yl]-quinazolin-2-ylamino}-benzenesulfonamide] | < 5 µM | < 5 µM
5 | CC(=O)NCCNc1cc(-c2cccc3cnc(Nc4ccc(S(N)(=O)=O)cc4)nc23)ccn1 [Compound 101, N-(2-{4-[2-(4-Sulfamoyl-phenylamino)-quinazolin-8-yl]-pyridin-2-ylamino}-ethyl)-acetamide] | < 5 µM | < 5 µM
6 | NS(=O)(=O)c1ccc(Nc2ncc3cccc(-c4ccnc(NCCN5CCCC5)c4)c3n2)cc1 [Compound 102, 4-{8-[2-(2-Pyrrolidin-1-yl-ethylamino)-pyridin-4-yl]-quinazolin-2-ylamino}-benzenesulfonamide] | < 5 µM | < 5 µM
7 | NS(=O)(=O)c1ccc(Nc2ncc3cccc(-c4cn[nH]c4)c3n2)cc1 [Compound 104, 4-[8-(1H-Pyrazol-4-yl)-quinazolin-2-ylamino]-benzenesulfonamide] | < 5 µM | < 5 µM
8 | NS(=O)(=O)c1ccc(Nc2ncc3cccc(-c4ccnc(N5CCOCC5)c4)c3n2)cc1 [Compound 105, 4-[8-(2-Morpholin-4-yl-pyridin-4-yl)-quinazolin-2-ylamino]-benzenesulfonamide] | 5 to 10 µM | < 5 µM
9 | CN1CCN(c2cc(-c3cccc4cnc(Nc5ccc(S(N)(=O)=O)cc5)nc34)ccn2)CC1 [Compound 106, 4-{8-[2-(4-Methyl-piperazin-1-yl)-pyridin-4-yl]-quinazolin-2-ylamino}-benzenesulfonamide] | < 5 µM | < 5 µM
10 | NS(=O)(=O)c1ccc(Nc2ncc3cccc(-c4ccnc(N5CCS(=O)(=O)CC5)c4)c3n2)cc1 [Compound 107, 4-{8-[2-(1,1-Dioxo-1 lambda*6*-thiomorpholin-4-yl)-pyridin-4-yl]-quinazolin-2-ylamino}-benzenesulfonamide] | < 5 µM | < 5 µM
11 | NS(=O)(=O)c1ccc(Nc2ncc3cccc(-c4ccnc(N5CCNC(=O)C5)c4)c3n2)cc1 [Compound 108, 4-{8-[2-(3-Oxo-piperazin-1-yl)-pyridin-4-yl]-quinazolin-2-ylamino}-benzenesulfonamide] | < 5 µM | < 5 µM
12 | NC(=O)c1ccc(-c2ccc3cnc(Nc4ccc(S(N)(=O)=O)cc4)nc3c2)cc1F [Compound 112, 2-Fluoro-4-[2-(4-sulfamoyl-phenylamino)-quinazolin-7-yl]-benzamide] | 5 to 10 µM | < 5 µM
13 | NS(=O)(=O)c1ccc(Nc2ncc3cccc(C(=O)N4CCCC4)c3n2)cc1 [Compound 113, 4-[8-(Pyrrolidine-1-carbonyl)-quinazolin-2 ylamino]-benzenesulfonamide] | 5 to 10 µM | < 5 µM
14 | COCCNC(=O)c1cccc2cnc(Nc3ccc(S(N)(=O)=O)cc3)nc12 [Compound 114, 2-(4-Sulfamoyl-phenylamino)-quinazoline-8-carboxylic acid (2-methoxy-ethyl)-amide] | < 5 µM | 5 to 10 µM
15 | NS(=O)(=O)c1ccc(Nc2ncc3cccc(C(=O)NCCN4CCCC4)c3n2)cc1 [Compound 115, 2-(4-Sulfamoyl-phenylamino)-quinazoline-8-carboxylic acid (2-pyrrolidin-1-yl-ethyl)-amide] | < 5 µM | 5 to 10 µM
16 | COCCN1CCN(C(=O)c2ccc3cnc(Nc4ccc(S(N)(=O)=O)cc4)nc3c2)CC1 [Compound 116, 4-{7-[4-(2-Methoxy-ethyl)-piperazine-1-carbonyl]-quinazolin-2-ylamino}-benzenesulfonamide] | 5 to 10 µM | 10 to 25 µM
17 | COc1cc(-c2cccc3cnc(Nc4ccc(S(N)(=O)=O)cc4)nc23)c(Cl)cn1 [Compound 117, 4-[8-(5-Chloro-2-methoxy-pyridin-4-yl)-quinazolin-2-ylamino]-benzenesulfonamide] | < 5 µM | < 5 µM
18 | CC(C)N1CCN(C(=O)c2ccc3cnc(Nc4ccc(S(N)(=O)=O)cc4)nc3c2)CC1 [Compound 118, 4-[7-(4-Isopropyl-piperazine-1-carbonyl)-quinazolin-2-ylamino]-benzenesulfonamide] | 5 to 10 µM | 10 to 25 µM
19 | CN1CCC(NC(=O)c2ccc3cnc(Nc4ccc(S(N)(=O)=O)cc4)nc3c2)CC1 [Compound 119, 2-(4-Sulfamoyl-phenylamino)-quinazoline-7-carboxylic acid (1-methyl-piperidin-4-yl)-amide] | 5 to 10 µM | < 5 µM

Further lines, results first:

Row | EC50 (A2780 cells) | IC50 (PDK1 kinase) | SMILES
20 | 5 to 10 µM | < 5 µM | CC(=O)c1ccc(-c2cccc3cnc(Nc4ccc(S(N)(=O)=O)cc4)nc23)cc1 [Compound 88, 4-[8-(4-Acetyl-phenyl)-quinazolin-2-ylamino]-benzenesulfonamide]
21 | < 5 µM | < 5 µM | NC(=O)c1cccc(-c2cccc3cnc(Nc4ccc(S(N)(=O)=O)cc4)nc23)c1 [Compound 90, 3-[2-(4-Sulfamoyl-phenylamino)-quinazolin-8-yl]-benzamide]
22 | < 5 µM | < 5 µM | CS(=O)(=O)c1cccc(-c2cccc3cnc(Nc4ccc(S(N)(=O)=O)cc4)nc23)c1 [Compound 91, 4-[8-(3-Methanesulfonyl-phenyl)-quinazolin-2-ylamino]-benzenesulfonamide]
23 | < 5 µM | < 5 µM | CS(=O)(=O)Nc1cccc(-c2cccc3cnc(Nc4ccc(S(N)(=O)=O)cc4)nc23)c1 [Compound 92, 4-[8-(3-Methanesulfonylamino-phenyl)-quinazolin-2-ylamino]-benzenesulfonamide]
24 | < 5 µM | < 5 µM | CC(=O)Nc1cccc(-c2cccc3cnc(Nc4ccc(S(N)(=O)=O)cc4)nc23)c1 [Compound 93, N-{3-[2-(4-Sulfamoyl-phenylamino)-quinazolin-8-yl]-phenyl}-acetamide]
25 | < 5 µM | < 5 µM | NS(=O)(=O)c1ccc(Nc2ncc3cccc(-c4ccc5c(c4)OCO5)c3n2)cc1 [Compound 95, 4-(8-Benzo[1,3]dioxol-5-yl-quinazolin-2-ylamino)-benzenesulfonamide]
26 | < 5 µM | < 5 µM | NC(=O)c1ccc(-c2cccc3cnc(Nc4ccc(S(N)(=O)=O)cc4)nc23)cc1 [Compound 96, 4-[2-(4-Sulfamoyl-phenylamino)-quinazolin-8-yl]-benzamide]
27 | < 5 µM | < 5 µM | NS(=O)(=O)c1ccc(Nc2ncc3cccc(-c4ccnc(F)c4)c3n2)cc1 [Compound 97, 4-[8-(2-Fluoro-pyridin-4-yl)-quinazolin-2-ylamino]-benzenesulfonamide]
28 | 5 to 10 µM | < 5 µM | NS(=O)(=O)c1ccc(Nc2ncc3cccc(-c4cccnc4)c3n2)cc1 [Compound 98, 4-(8-Pyridin-3-yl-quinazolin-2-ylamino)-benzenesulfonamide]
29 | 5 to 10 µM | < 5 µM | NS(=O)(=O)c1ccc(Nc2ncc3cccc(-c4ccncc4)c3n2)cc1 [Compound 99, 4-(8-Pyridin-4-yl-quinazolin-2-ylamino)-benzenesulfonamide]
30 | < 5 µM | < 5 µM | NS(=O)(=O)c1ccc(Nc2ncc3cccc(-c4cnoc4)c3n2)cc1 [Compound 103, 4-(8-Isoxazol-4-yl-quinazolin-2-ylamino)-benzenesulfonamide]
31 | 5 to 10 µM | < 5 µM | Nc1cc(-c2cccc3cnc(Nc4ccc(S(N)(=O)=O)cc4)nc23)ccn1 [Compound 109, 4-[8-(2-Amino-pyridin-4-yl)-quinazolin-2-ylamino]-benzenesulfonamide]
32 | < 5 µM | < 5 µM | NS(=O)(=O)c1ccc(Nc2ncc3cccc(-c4ccccc4)c3n2)cc1 [Compound 110, 4-(8-Phenyl-quinazolin-2-ylamino)-benzenesulfonamide]
